Tests used:
[1] = target: T1, Amine oxidase [flavin-containing] A (Homo sapiens, UniProt P21397); assay: Inhibition of human MAO-A using p-tyramine as substrate assessed as production of H2O2 from p-tyramine incubated for 15 mins by Amplex Red MAO assay
T1 sequence (P21397 whole entry): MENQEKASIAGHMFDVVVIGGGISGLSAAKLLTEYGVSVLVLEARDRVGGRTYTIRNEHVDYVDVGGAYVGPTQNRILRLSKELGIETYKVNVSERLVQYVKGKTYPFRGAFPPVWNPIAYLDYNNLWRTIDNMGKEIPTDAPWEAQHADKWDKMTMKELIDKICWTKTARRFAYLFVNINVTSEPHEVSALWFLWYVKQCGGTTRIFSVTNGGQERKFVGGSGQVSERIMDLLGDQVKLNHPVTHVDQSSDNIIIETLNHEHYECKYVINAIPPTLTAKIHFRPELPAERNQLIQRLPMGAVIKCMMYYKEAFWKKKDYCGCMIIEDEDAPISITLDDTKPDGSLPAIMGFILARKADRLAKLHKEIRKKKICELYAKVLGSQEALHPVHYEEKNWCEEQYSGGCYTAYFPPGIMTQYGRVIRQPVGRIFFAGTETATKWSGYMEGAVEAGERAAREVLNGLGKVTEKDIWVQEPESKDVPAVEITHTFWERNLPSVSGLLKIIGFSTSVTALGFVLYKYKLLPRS

[2] = species on record: Homo sapiens; assay: Selectivity index, ratio of IC50 for human MAO-A to IC50 for human MA)-B by Amplex Red MAO assay
[3] = target: T2, Amine oxidase [flavin-containing] B (Homo sapiens, UniProt P27338); assay: Inhibition of human MAO-B using p-tyramine as substrate assessed as production of H2O2 from p-tyramine incubated for 15 mins by Amplex Red MAO assay
T2 sequence (P27338 whole entry): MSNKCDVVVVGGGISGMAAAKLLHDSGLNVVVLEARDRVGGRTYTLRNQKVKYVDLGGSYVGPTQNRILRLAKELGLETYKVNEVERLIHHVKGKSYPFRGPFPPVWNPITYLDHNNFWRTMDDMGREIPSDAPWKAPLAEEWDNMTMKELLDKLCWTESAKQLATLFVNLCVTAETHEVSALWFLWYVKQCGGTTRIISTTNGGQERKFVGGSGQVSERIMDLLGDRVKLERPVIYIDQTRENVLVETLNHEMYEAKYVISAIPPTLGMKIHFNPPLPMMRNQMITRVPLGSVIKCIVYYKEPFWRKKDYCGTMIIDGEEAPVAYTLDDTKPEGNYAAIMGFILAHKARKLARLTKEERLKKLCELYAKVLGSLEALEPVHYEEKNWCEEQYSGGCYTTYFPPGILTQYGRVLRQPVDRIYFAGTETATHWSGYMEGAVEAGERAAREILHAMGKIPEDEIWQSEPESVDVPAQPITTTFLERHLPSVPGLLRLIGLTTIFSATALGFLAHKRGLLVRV

[4] = target: T1, Amine oxidase [flavin-containing] A; assay: Inhibition of human MAO-A using p-tyramine as substrate assessed as production of H2O2 from p-tyramine at 100 uM incubated for 15 mins by Amplex Red MAO assay; conditions: 0.25 h
[5] = target: T2, Amine oxidase [flavin-containing] B; assay: Inhibition of human MAO-B preincubated at twice the IC50 for 15 mins
[6] = target: T2, Amine oxidase [flavin-containing] B; assay: Inhibition of human MAO-B preincubated at twice the IC50 for 0 mins
[7] = target: T2, Amine oxidase [flavin-containing] B; assay: Inhibition of human MAO-B preincubated at twice the IC50 for 60 mins
[8] = target: T2, Amine oxidase [flavin-containing] B; assay: Reversible inhibition of human MAO-B preincubated at twice the IC50 for 0 to 60 mins
[9] = tested on: SH-SY5Y; assay: Neurotoxicity against human SH-SY5Y cells assessed as cell viability at 3 to 50 uM after 48 hrs by MTT assay; format: toxicity, cell-based
[10] = target: T2, Amine oxidase [flavin-containing] B; assay: Inhibition of human MAO-B preincubated at twice the IC50 for 30 mins
[11] = target: T2, Amine oxidase [flavin-containing] B; assay: Competitive inhibition of human MAO-B using 50 to 500 uM p-tyramine as substrate at 4.3 to 17.2 nM by Lineweaver-Burk plot analysis
[12] = target: T2, Amine oxidase [flavin-containing] B; assay: Time dependent inhibition of human MAO-B preincubated at twice the IC50 for 0 to 60 mins

SMILES	IC50 [3] [nM]	inhibition at 100 µM [4] [%]	other results
O=C1COc2cc(OCCc3ccccc3)ccc21	2130	–	IC50 [1]: 46400 nM; Ratio IC50 [2]: 21.8
O=C1CCOc2cc(OCc3ccccc3)ccc21	57.4	18	–
O=C1CCOc2cc(OCc3cccc(F)c3)ccc21	52.6	26	Ratio IC50 [2]: > 1900
CC1(C)CC(=O)c2ccc(OCc3ccc(C#N)cc3)cc2O1	69.5	23	–
O=C1COc2cc(OCCCc3ccccc3)ccc21	20500	–	IC50 [1]: 39300 nM; Ratio IC50 [2]: 1.9
O=C1CCOc2cc(OCc3ccc(Br)cc3)ccc21	21.6	19	–
O=C1CCOc2cc(OCCCc3ccccc3)ccc21	21400	65	–
CC1(C)CC(=O)c2ccc(OCc3ccccc3F)cc2O1	68.8	28	–
CC1(C)CC(=O)c2ccc(OCc3cccc(Cl)c3)cc2O1	55.4	31	–
O=C1CCOc2cc(OCc3ccc(Cl)cc3)ccc21	–	37	–
O=C1COc2cc(OCc3ccccc3)ccc21	15200	–	IC50 [1]: 38200 nM; Ratio IC50 [2]: 2.5
O=C1CCOc2cc(OCc3ccc(F)cc3)ccc21	–	43	inhibition (INH) [5]: 44.5%; inhibition (INH) [6]: 42.4%; inhibition (INH) [7]: 49.6%; inhibition (INH) [8]: Active; Activity [9]: Non-toxic; inhibition (INH) [10]: 45.5%; inhibition (INH) [11]: Active; TDI [12]: Not Active
CC1(C)CC(=O)c2ccc(OCc3ccccc3)cc2O1	97.5	25	–
O=C1CCOc2cc(O)ccc21	78900	–	IC50 [1]: 71400 nM; Ratio IC50 [2]: 0.9
N#Cc1ccc(COc2ccc3c(c2)OCCC3=O)cc1	47.3	27	–
CC1(C)CC(=O)c2ccc(OCc3ccc(F)cc3)cc2O1	–	25	Activity [9]: Non-toxic
O=C1CCOc2cc(OCc3cccc(Br)c3)ccc21	30.3	28	–
O=C1CCOc2cc(OCc3ccccc3F)ccc21	58.8	35	–
Cc1ccc(COc2ccc3c(c2)OCCC3=O)cc1	91.3	26	–
CC1(C)CC(=O)c2ccc(OCc3ccc(Cl)cc3)cc2O1	–	28	–
Cc1cccc(COc2ccc3c(c2)OC(C)(C)CC3=O)c1	98.3	18	–
O=C1CCOc2cc(OCCc3ccccc3)ccc21	251	58	–
Cc1cccc(COc2ccc3c(c2)OCCC3=O)c1	–	19	–
O=C1CCOc2cc(OCc3cccc(Cl)c3)ccc21	35.3	35	–
CC1(C)CC(=O)c2ccc(OCc3cccc(Br)c3)cc2O1	52.2	16	–
CC1(C)CC(=O)c2ccc(OCc3ccc(Br)cc3)cc2O1	45.4	21	–
CC1(C)CC(=O)c2ccc(OCc3cccc(F)c3)cc2O1	65.5	18	–
Cc1ccc(COc2ccc3c(c2)OC(C)(C)CC3=O)cc1	113	25	–

— ChEMBL document CHEMBL3739402, “Chromanones: selective and reversible monoamine oxidase B inhibitors with nanomolar potency” (Medchemcomm, 2015)
